According to ChEMBL document CHEMBL1177843, “Metal based biologically active compounds: design, synthesis, and antibacterial/antifungal/cytotoxic properties of triazole-derived Schiff bases and their oxovanadium(IV) complexes” (Eur J Med Chem, 2010):
≈ marks a conversion by molar mass, not a printed value.

Key:
Staphylococcus aureus = test: Antibacterial activity against Staphylococcus aureus at 1 mg/ml after 24 hrs by agar-well diffusion method; assay type: functional; conditions: for zone of inhibition at 1000 µg/mL: Staphylococcus aureus, 24 h, read-out: DIZ
Escherichia coli = test: Antibacterial activity against Escherichia coli at 1 mg/ml after 24 hrs by agar-well diffusion method; assay type: functional; conditions: for zone of inhibition at 1000 µg/mL: Escherichia coli, 24 h, read-out: DIZ
Salmonella enterica = test: Antibacterial activity against Salmonella typhi at 1 mg/ml after 24 hrs by agar-well diffusion method; assay type: functional, Salmonella enterica subsp. enterica serovar Typhi; conditions: for zone of inhibition at 1000 µg/mL: Salmonella enterica, 24 h, read-out: DIZ
Shigella flexneri = test: Antibacterial activity against Shigella flexneri at 1 mg/ml after 24 hrs by agar-well diffusion method; assay type: functional; conditions: for zone of inhibition at 1000 µg/mL: Shigella flexneri, 24 h, read-out: DIZ
Pseudomonas aeruginosa = test: Antibacterial activity against Pseudomonas aeruginosa at 1 mg/ml after 24 hrs by agar-well diffusion method; assay type: functional; conditions: for zone of inhibition at 1000 µg/mL: Pseudomonas aeruginosa, 24 h, read-out: DIZ
Artemia salina = test: Toxicity in Artemia salina nauplii assessed as mortality after 24 hrs; assay type: organism-based; conditions: in vivo
Bacillus subtilis = test: Antibacterial activity against Bacillus subtilis at 1 mg/ml after 24 hrs by agar-well diffusion method; assay type: functional; conditions: for zone of inhibition at 1000 µg/mL: Bacillus subtilis, 24 h, read-out: DIZ
Aspergillus flavus = test: Antifungal activity against Aspergillus flavus after 7 days; assay type: functional; conditions: 168 h
Trichophyton longifusum = test: Antifungal activity against Trichophyton longifusum after 7 days; assay type: functional; conditions: 168 h
Candida albicans = test: Antifungal activity against Candida albicans after 7 days; conditions: 168 h
Nakaseomyces glabratus = test: Antifungal activity against Candida glabrata after 7 days; assay type: functional; conditions: 168 h
Fusarium solani = test: Antifungal activity against Fusarium solani after 7 days; assay type: functional; conditions: 168 h
Microsporum canis = test: Antifungal activity against Microsporum canis after 7 days; assay type: functional; conditions: 168 h

## C/C(=N\c1n[nH]c(/N=C(\C)c2ccccn2)n1)c1ccccn1
Staphylococcus aureus
  Activity: 39%
  zone of inhibition at 1000 µg/mL: 11 mm
Escherichia coli
  Activity: 58%
  zone of inhibition at 1000 µg/mL: 17 mm
Salmonella enterica
  Activity: 58%
  zone of inhibition at 1000 µg/mL: 16 mm
Shigella flexneri
  Activity: 39%
  zone of inhibition at 1000 µg/mL: 12 mm
Pseudomonas aeruginosa
  Activity: 58%
  zone of inhibition at 1000 µg/mL: 18 mm
Artemia salina
  LD50: > 3.341 ×10⁻⁴ M/ml
Bacillus subtilis
  Activity: 39%
  zone of inhibition at 1000 µg/mL: 13 mm

## Oc1ccc2ccccc2c1/C=N/c1n[nH]c(/N=C/c2c(O)ccc3ccccc23)n1
Staphylococcus aureus
  Activity: 35%
  zone of inhibition at 1000 µg/mL: 12 mm
Escherichia coli
  Activity: 35%
  zone of inhibition at 1000 µg/mL: 11 mm
Salmonella enterica
  Activity: 35%
  zone of inhibition at 1000 µg/mL: 14 mm
Shigella flexneri
  Activity: 35%
  zone of inhibition at 1000 µg/mL: 13 mm
Pseudomonas aeruginosa
  Activity: 35%
  zone of inhibition at 1000 µg/mL: 11 mm
Artemia salina
  LD50: > 7.614 ×10⁻⁴ M/ml
Bacillus subtilis
  Activity: 57%
  zone of inhibition at 1000 µg/mL: 16 mm

## C(=N\c1n[nH]c(/N=C/c2ccc[nH]2)n1)/c1ccc[nH]1
Staphylococcus aureus
  Activity: 39%
  zone of inhibition at 1000 µg/mL: 11 mm
Escherichia coli
  Activity: 55%
  zone of inhibition at 1000 µg/mL: 17 mm
Salmonella enterica
  Activity: 55%
  zone of inhibition at 1000 µg/mL: 16 mm
Shigella flexneri
  Activity: 39%
  zone of inhibition at 1000 µg/mL: 12 mm
Pseudomonas aeruginosa
  Activity: 39%
  zone of inhibition at 1000 µg/mL: 14 mm
Artemia salina
  LD50: > 6.897 ×10⁻⁴ M/ml
Bacillus subtilis
  Activity: 39%
  zone of inhibition at 1000 µg/mL: 13 mm

## C(=N\c1n[nH]c(/N=C/c2ccccn2)n1)/c1ccccn1
Staphylococcus aureus
  Activity: 58%
  zone of inhibition at 1000 µg/mL: 16 mm
Escherichia coli
  Activity: 43%
  zone of inhibition at 1000 µg/mL: 15 mm
Salmonella enterica
  Activity: 43%
  zone of inhibition at 1000 µg/mL: 11 mm
Shigella flexneri
  Activity: 58%
  zone of inhibition at 1000 µg/mL: 18 mm
Pseudomonas aeruginosa
  Activity: 43%
  zone of inhibition at 1000 µg/mL: 13 mm
Artemia salina
  LD50: > 4.128 ×10⁻⁴ M/ml
Bacillus subtilis
  Activity: 43%
  zone of inhibition at 1000 µg/mL: 12 mm

## C[C@@H]1[C@H](O)[C@@H](C)/C=C/C=C/C=C/C=C/C=C/C=C/C=C/[C@H](O[C@@H]2O[C@H](C)[C@@H](O)[C@H](N)[C@@H]2O)C[C@@H]2O[C@](O)(C[C@@H](O)C[C@@H](O)[C@H](O)CC[C@@H](O)C[C@@H](O)CC(=O)O[C@H]1C)C[C@H](O)[C@H]2C(=O)O [AMPHOTERICIN B]
Aspergillus flavus
  MIC: 20 µg/mL (≈ 21.6 µM)

## C[C@@H](O)[C@H]1C(=O)N2C(C(=O)O)=C(SCCNC=N)C[C@H]12 [IMIPENEM ANHYDROUS]
Staphylococcus aureus
  zone of inhibition at 1000 µg/mL: 26 mm
Escherichia coli
  zone of inhibition at 1000 µg/mL: 29 mm
Salmonella enterica
  zone of inhibition at 1000 µg/mL: 29 mm
Shigella flexneri
  zone of inhibition at 1000 µg/mL: 31 mm
Pseudomonas aeruginosa
  zone of inhibition at 1000 µg/mL: 30 mm
Bacillus subtilis
  zone of inhibition at 1000 µg/mL: 28 mm

## Clc1ccc(COC(Cn2ccnc2)c2ccc(Cl)cc2Cl)c(Cl)c1 (centres undefined) [MICONAZOLE]
Trichophyton longifusum
  MIC: 70 µg/mL (≈ 168 µM)
Candida albicans
  MIC: 111 µg/mL (≈ 266 µM)
Nakaseomyces glabratus
  MIC: 111 µg/mL (≈ 266 µM)
Fusarium solani
  MIC: 73.2 µg/mL (≈ 176 µM)
Microsporum canis
  MIC: 98.4 µg/mL (≈ 236 µM)
